# Experimental data reported in PubChem BioAssay AID2060900 (Molecular Pharmacology Branch, DTP, NCI, 2025).
# System: 521955-158-R2-J5-PDC complex spheroids, viability
# Assay: Anticancer human tumor 521955-158-R2-J5-PDC patient-derived pancreatic carcinoma cell line growth inhibition [RAS]
# Conditions: for IC50: curve of first compound; for viability, T/C: stronger effect = lower value
# Outline: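 Multi-cell-type spheroids: tumor cells plus HUVEC endothelial cells and mesenchymal stem cells. RAS-pathway inhibitors were combined with targeted agents, each dosed in half-log steps down from clinical Cmax, or from 10 microM when Cmax was unknown.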
# [1] = second compound 0.000949 µM, first compound 0.00316 µM
# [2] = second compound 0.000949 µM, first compound 0.01 µM
# [3] = second compound 0.000949 µM, first compound 0.0316 µM
# [4] = second compound 0.000949 µM, first compound 0.1 µM
# [5] = second compound 0.000949 µM, first compound 0.316 µM
# [6] = second compound 0.000949 µM, first compound 1 µM
# [7] = second compound 0.003 µM, first compound 0.00316 µM
# [8] = second compound 0.003 µM, first compound 0.01 µM
# [9] = second compound 0.003 µM, first compound 0.0316 µM
# [10] = second compound 0.003 µM, first compound 0.1 µM
# [11] = second compound 0.003 µM, first compound 0.316 µM
# [12] = second compound 0.003 µM, first compound 1 µM
# [13] = second compound 0.00949 µM, first compound 0.00316 µM
# [14] = second compound 0.00949 µM, first compound 0.01 µM
# [15] = second compound 0.00949 µM, first compound 0.0316 µM
# [16] = second compound 0.00949 µM, first compound 0.1 µM
# [17] = second compound 0.00949 µM, first compound 0.316 µM
# [18] = second compound 0.00949 µM, first compound 1 µM
# [19] = second compound 0.03 µM, first compound 0.00316 µM
# [20] = second compound 0.03 µM, first compound 0.01 µM
# [21] = second compound 0.03 µM, first compound 0.0316 µM
# [22] = second compound 0.03 µM, first compound 0.1 µM
# [23] = second compound 0.03 µM, first compound 0.316 µM
# [24] = second compound 0.03 µM, first compound 1 µM
# [25] = second compound 0.0949 µM, first compound 0.00316 µM
# [26] = second compound 0.0949 µM, first compound 0.01 µM
# [27] = second compound 0.0949 µM, first compound 0.0316 µM
# [28] = second compound 0.0949 µM, first compound 0.1 µM
# [29] = second compound 0.0949 µM, first compound 0.316 µM
# [30] = second compound 0.0949 µM, first compound 1 µM
# [31] = second compound 0.3 µM, first compound 0.00316 µM
# [32] = second compound 0.3 µM, first compound 0.01 µM
# [33] = second compound 0.3 µM, first compound 0.0316 µM
# [34] = second compound 0.3 µM, first compound 0.1 µM
# [35] = second compound 0.3 µM, first compound 0.316 µM
# [36] = second compound 0.3 µM, first compound 1 µM
# 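Also: compound exposure lasted seven days before the viability read.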
# 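For viability, T/C in this document: spheroids also contain HUVEC endothelial cells and mesenchymal stem cells as stroma.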
smiles,measurement,setting,value
C=CC(=O)N1CCN(c2nc(OCC3CCCN3C)nc3c(F)c(-c4nc(N)cc(C)c4C(F)(F)F)c(Cl)cc23)C(C)C1 (stereo unspecified) + CCn1c(-c2cc(N3CCN(C)CC3)cnc2C(C)OC)c2c3cc(ccc31)-c1csc(n1)CC(NC(=O)C1CC1C)C(=O)N1CCCC(N1)C(=O)OCC(C)(C)C2,IC50,second compound 0.000949 µM,< 3.16 nM
same,IC50,second compound 0.003 µM,< 3.16 nM
same,IC50,second compound 0.00949 µM,< 3.16 nM
same,IC50,second compound 0.03 µM,< 3.16 nM
same,IC50,second compound 0.0949 µM,< 3.16 nM
same,IC50,second compound 0.3 µM,< 3.16 nM
same,"viability, T/C",[1],42.5%
same,"viability, T/C",[2],43.1%
same,"viability, T/C",[3],45.9%
same,"viability, T/C",[4],45.9%
same,"viability, T/C",[5],57.7%
same,"viability, T/C",[6],41%
same,"viability, T/C",[7],39.4%
same,"viability, T/C",[8],36.5%
same,"viability, T/C",[9],46.7%
same,"viability, T/C",[10],49.3%
same,"viability, T/C",[11],39.9%
same,"viability, T/C",[12],49.5%
same,"viability, T/C",[13],35%
same,"viability, T/C",[14],35.4%
same,"viability, T/C",[15],44.3%
same,"viability, T/C",[16],29.6%
same,"viability, T/C",[17],42%
same,"viability, T/C",[18],36.1%
same,"viability, T/C",[19],17.1%
same,"viability, T/C",[20],19%
same,"viability, T/C",[21],22.6%
same,"viability, T/C",[22],20.2%
same,"viability, T/C",[23],30.7%
same,"viability, T/C",[24],18.6%
same,"viability, T/C",[25],16.1%
same,"viability, T/C",[26],11.4%
same,"viability, T/C",[27],11.9%
same,"viability, T/C",[28],13.9%
same,"viability, T/C",[29],15.1%
same,"viability, T/C",[30],11.9%
same,"viability, T/C",[31],10.8%
same,"viability, T/C",[32],10.2%
same,"viability, T/C",[33],11.3%
same,"viability, T/C",[34],12.5%
same,"viability, T/C",[35],15.9%
same,"viability, T/C",[36],9.71%
CC1(C)CCC(Nc2ncc(C(F)(F)F)c(-c3c[nH]c4c(P(C)(C)=O)c(C#N)ccc34)n2)CN1 (stereo unspecified) + CCn1c(-c2cc(N3CCN(C)CC3)cnc2C(C)OC)c2c3cc(ccc31)-c1csc(n1)CC(NC(=O)C1CC1C)C(=O)N1CCCC(N1)C(=O)OCC(C)(C)C2,IC50,second compound 0.000949 µM,< 0.949 nM
same,IC50,second compound 0.003 µM,< 0.949 nM
same,IC50,second compound 0.00949 µM,< 0.949 nM
same,IC50,second compound 0.03 µM,< 0.949 nM
same,IC50,second compound 0.0949 µM,< 0.949 nM
same,IC50,second compound 0.3 µM,< 0.949 nM
same,"viability, T/C","second compound 0.000949 µM, first compound 0.000949 µM",33.7%
same,"viability, T/C","second compound 0.000949 µM, first compound 0.003 µM",32%
same,"viability, T/C","second compound 0.000949 µM, first compound 0.00949 µM",33.4%
same,"viability, T/C","second compound 0.000949 µM, first compound 0.03 µM",30.9%
same,"viability, T/C","second compound 0.000949 µM, first compound 0.0949 µM",39.5%
same,"viability, T/C","second compound 0.000949 µM, first compound 0.3 µM",40.5%
same,"viability, T/C","second compound 0.003 µM, first compound 0.000949 µM",34.6%
same,"viability, T/C","second compound 0.003 µM, first compound 0.003 µM",26.5%
same,"viability, T/C","second compound 0.003 µM, first compound 0.00949 µM",18%
same,"viability, T/C","second compound 0.003 µM, first compound 0.03 µM",23.1%
same,"viability, T/C","second compound 0.003 µM, first compound 0.0949 µM",23.4%
same,"viability, T/C","second compound 0.003 µM, first compound 0.3 µM",31.7%
same,"viability, T/C","second compound 0.00949 µM, first compound 0.000949 µM",24.2%
same,"viability, T/C","second compound 0.00949 µM, first compound 0.003 µM",23.6%
same,"viability, T/C","second compound 0.00949 µM, first compound 0.00949 µM",20.4%
same,"viability, T/C","second compound 0.00949 µM, first compound 0.03 µM",16.6%
same,"viability, T/C","second compound 0.00949 µM, first compound 0.0949 µM",15.1%
same,"viability, T/C","second compound 0.00949 µM, first compound 0.3 µM",19.4%
same,"viability, T/C","second compound 0.03 µM, first compound 0.000949 µM",12.3%
same,"viability, T/C","second compound 0.03 µM, first compound 0.003 µM",17.6%
same,"viability, T/C","second compound 0.03 µM, first compound 0.00949 µM",9.79%
same,"viability, T/C","second compound 0.03 µM, first compound 0.03 µM",7.37%
same,"viability, T/C","second compound 0.03 µM, first compound 0.0949 µM",8.43%
same,"viability, T/C","second compound 0.03 µM, first compound 0.3 µM",7.63%
same,"viability, T/C","second compound 0.0949 µM, first compound 0.000949 µM",8.04%
same,"viability, T/C","second compound 0.0949 µM, first compound 0.003 µM",7.4%
same,"viability, T/C","second compound 0.0949 µM, first compound 0.00949 µM",8.22%
same,"viability, T/C","second compound 0.0949 µM, first compound 0.03 µM",5.8%
same,"viability, T/C","second compound 0.0949 µM, first compound 0.0949 µM",4.67%
same,"viability, T/C","second compound 0.0949 µM, first compound 0.3 µM",4.29%
same,"viability, T/C","second compound 0.3 µM, first compound 0.000949 µM",8.35%
same,"viability, T/C","second compound 0.3 µM, first compound 0.003 µM",7.65%
same,"viability, T/C","second compound 0.3 µM, first compound 0.00949 µM",4.3%
same,"viability, T/C","second compound 0.3 µM, first compound 0.03 µM",4.81%
same,"viability, T/C","second compound 0.3 µM, first compound 0.0949 µM",3.91%
same,"viability, T/C","second compound 0.3 µM, first compound 0.3 µM",5.79%
C=CC(=O)Nc1cc(Nc2nccc(-c3cn(C)c4ccccc34)n2)c(OC)cc1N(C)CCN(C)C + CCn1c(-c2cccnc2C(C)OC)c2c3cc(ccc31)N1CCOC(CC(NC(=O)C(C(C)C)N(C)C(=O)C3(F)CCN(C(=O)C#CC(C)(C)N(C)C)CC3)C(=O)N3CCCC(N3)C(=O)OCC(C)(C)C2)C1,IC50,second compound 0.000949 µM,504 nM
same,IC50,second compound 0.003 µM,755 nM
same,IC50,second compound 0.00949 µM,493 nM
same,IC50,second compound 0.03 µM,416 nM
same,IC50,second compound 0.0949 µM,441 nM
same,IC50,second compound 0.3 µM,176 nM
same,"viability, T/C",[1],89.9%
same,"viability, T/C",[2],84.1%
same,"viability, T/C",[3],84.1%
same,"viability, T/C",[4],72.6%
same,"viability, T/C",[5],59%
same,"viability, T/C",[6],37.1%
same,"viability, T/C",[7],110%
same,"viability, T/C",[8],82.6%
same,"viability, T/C",[9],71.8%
same,"viability, T/C",[10],65.3%
same,"viability, T/C",[11],59.2%
same,"viability, T/C",[12],44.1%
same,"viability, T/C",[13],101%
same,"viability, T/C",[14],91.5%
same,"viability, T/C",[15],88.6%
same,"viability, T/C",[16],75.4%
same,"viability, T/C",[17],61.4%
same,"viability, T/C",[18],34.1%
same,"viability, T/C",[19],88.6%
same,"viability, T/C",[20],79.2%
same,"viability, T/C",[21],80%
same,"viability, T/C",[22],70.8%
same,"viability, T/C",[23],51.8%
same,"viability, T/C",[24],41%
same,"viability, T/C",[25],86.3%
same,"viability, T/C",[26],95.8%
same,"viability, T/C",[27],70%
same,"viability, T/C",[28],70.2%
same,"viability, T/C",[29],56.6%
same,"viability, T/C",[30],36.9%
same,"viability, T/C",[31],70.2%
same,"viability, T/C",[32],79.2%
same,"viability, T/C",[33],72%
same,"viability, T/C",[34],55.4%
same,"viability, T/C",[35],45.3%
same,"viability, T/C",[36],36.9%
